Values quoted from earlier work in US20200068939A1, “Nutritional compositions to increase and sustain blood ketone levels” (JHO Intellectual Property Holdings LLC, priority 2018, published 2020).

Tests used:
[1] = acute ingestion, 15 min to 6 hr
[2] = not given; remark: listed apart in the source

| bHB in short-term nutritional ketosis [1] [mM] | blood βHB concentration at the start of the OGTT ([2]; 482 mg/kg 30 min before glucose bolus) [mM] | blood βHB concentration at the end of the OGTT ([2]; 482 mg/kg 30 min before glucose bolus, end of 2 h test) [mM] | Structure (SMILES) | stimulation of ketone production (2.5 mg/kg given at breakfast) | plasma free fatty acids (2.5, 5.0 mg/kg given at breakfast) | reduction in 2 h AUC for serum FFAs ([2]; 482 mg/kg, 2 h) [%] | reduction of plasma glucose AUC ([2]; 482 mg/kg, over the 2 h period) [%] |
| --- | --- | --- | --- | --- | --- | --- | --- |
| – | – | – | Cn1c(=O)c2c(ncn2C)n(C)c1=O [Caffeine] | +88% | raised plasma free fatty acids | – | – |
| > 1 | ~3 | ~1.5 | C[C@@H](O)CCOC(=O)C[C@@H](C)O [KME, (R)-3-hydroxybutyl (R)-3-hydroxybutyrate] | – | – | 44 | 16 |
